The supplement of paper PMC11061612

Columns and labels:
[1] = tested on: BE-13 (T-Lymphoblastic Leukemia); assay: Bliss excess, mean over the matrix (fraction); higher = more synergy
In short: (§1)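 After 24 hours at 37°C and 5% CO2 in 1536-well plates, cells in DMEM/F12 or RPMI plus 10% FBS received two-drug dose matrices for 72 hours. Viability came from CellTiter-Glo 2.0 luminescence and was scaled as inhibition, anchored at 0 by vehicle wells and at 1 by blank wells. Combination Emax is taken as the second-highest inhibition in the matrix, and Bliss excess as the observed combination effect less EA + EB − EA·EB, with EA and EB the single-agent effects.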

[2] = tested on: MHH-CALL-2 (B-Lymphoblastic Leukemia); assay: combination Emax (second highest fraction inhibited in the dose matrix, 72 h); higher = more inhibition; extreme values may be limits of the assay
In short: as §1

[3] = tested on: Hs-746T (Gastric Carcinoma); assay: Bliss excess, mean over the matrix (fraction); higher = more synergy
In short: as §1

[4] = tested on: BFTC-909 (Kidney Carcinoma); assay: as above
In short: as §1

[5] = tested on: NCI-H1568 (Lung Adenocarcinoma); assay: as above
In short: as §1

[6] = tested on: L-428 (Hodgkin's Lymphoma); assay: as above
In short: as §1

[7] = tested on: MHH-CALL-2 (B-Lymphoblastic Leukemia); assay: as above
In short: as §1

BPH-1 (Non-Cancerous) = assay: as above
In short: as §1

[8] = tested on: OV-56 (Ovarian Carcinoma); assay: as above
In short: as §1

[9] = tested on: NCI-H720 (Other Solid Carcinomas); assay: combination Emax (second highest fraction inhibited in the dose matrix, 72 h); higher = more inhibition; extreme values may be limits of the assay
In short: as §1

[10] = tested on: NCI-H720 (Other Solid Carcinomas); assay: Bliss excess, mean over the matrix (fraction); higher = more synergy
In short: as §1

[11] = tested on: LS-123 (Colorectal Carcinoma); assay: as above
In short: as §1
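Throughout, for Bliss excess, mean over the matrix: after 72 h of two-drug dosing.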

Compound | Bliss excess [1] | combination Emax [2] | Bliss excess [3] | Bliss excess [4] | Bliss excess [5] | Bliss excess [6] | Bliss excess [7] | Bliss excess (BPH-1 (Non-Cancerous)) | Bliss excess [8] | combination Emax [9] | Bliss excess [10] | Bliss excess [11]
CN(CCO)CC[C@H](CSc1ccccc1)Nc1ccc(S(=O)(=O)NC(=O)c2ccc(N3CCC([C@@H](O)c4ccccc4-c4ccc(Cl)cc4)CC3)cc2)cc1S(=O)(=O)C(F)(F)F [AZD4320] + CC(=O)O[C@H]1C(=O)[C@@]2(C)[C@H]([C@H](OC(=O)c3ccccc3)[C@]3(O)C[C@H](OC(=O)[C@H](O)[C@@H](NC(=O)c4ccccc4)c4ccccc4)C(C)=C1C3(C)C)[C@]1(OC(C)=O)CO[C@@H]1C[C@@H]2O [Paclitaxel] (first compound max 1 µM, 7x7, partner max 3 µM) | 0.0037 | – | – | – | – | – | – | – | – | – | – | –
CN(CCO)CC[C@H](CSc1ccccc1)Nc1ccc(S(=O)(=O)NC(=O)c2ccc(N3CCC([C@@H](O)c4ccccc4-c4ccc(Cl)cc4)CC3)cc2)cc1S(=O)(=O)C(F)(F)F [AZD4320] + CCN(CCO)CCCOc1ccc2c(Nc3cc(CC(=O)Nc4cccc(F)c4)[nH]n3)ncnc2c1 [AZD2811] (first compound max 1 µM, 7x7, partner max 1 µM) | 0.0663 | 0.538 | -0.0095 | 0.0605 | -0.0102 | 0.0083 | 0.138 | -0.0079 | -0.0293 | – | – | –
CN(CCO)CC[C@H](CSc1ccccc1)Nc1ccc(S(=O)(=O)NC(=O)c2ccc(N3CCC([C@@H](O)c4ccccc4-c4ccc(Cl)cc4)CC3)cc2)cc1S(=O)(=O)C(F)(F)F [AZD4320] + C[C@@H]1COCCN1C2=NC(=NC(=C2)C3(CC3)[S@](=N)(=O)C)C4=C5C=CNC5=NC=C4 [AZD6738] (first compound max 1 µM, 7x7, partner max 10 µM) | -0.0251 | 0.921 | -0.0021 | 0.042 | -0.0135 | -0.0103 | 0.0042 | -0.0979 | -0.005 | – | – | –
CN(CCO)CC[C@H](CSc1ccccc1)Nc1ccc(S(=O)(=O)NC(=O)c2ccc(N3CCC([C@@H](O)c4ccccc4-c4ccc(Cl)cc4)CC3)cc2)cc1S(=O)(=O)C(F)(F)F [AZD4320] + C[C@@H](Nc1cc(F)cc(F)c1)c1cc(C(=O)N(C)C)cc2c(=O)cc(N3CCOCC3)oc12 [AZD8186] (first compound max 1 µM, 7x7, partner max 3 µM) | -0.0065 | 0.917 | -0.0354 | -0.0011 | -0.0013 | 0.0393 | 0.042 | -0.0541 | -0.0031 | – | – | –
CN(CCO)CC[C@H](CSc1ccccc1)Nc1ccc(S(=O)(=O)NC(=O)c2ccc(N3CCC([C@@H](O)c4ccccc4-c4ccc(Cl)cc4)CC3)cc2)cc1S(=O)(=O)C(F)(F)F [AZD4320] + Cc1cc2ncnn2cc1Nc1ncc2c(n1)n(C1CCOCC1)c(=O)n2C [AZD7648] (first compound max 1 µM, 7x7, partner max 10 µM) | 0.0028 | 0.516 | -0.0371 | -0.0094 | -0.0325 | -0.0021 | 0.0839 | -0.0325 | -0.0109 | – | – | –
CN(CCO)CC[C@H](CSc1ccccc1)Nc1ccc(S(=O)(=O)NC(=O)c2ccc(N3CCC([C@@H](O)c4ccccc4-c4ccc(Cl)cc4)CC3)cc2)cc1S(=O)(=O)C(F)(F)F [AZD4320] + Nc1ccn([C@@H]2O[C@H](CO)[C@@H](O)C2(F)F)c(=O)n1 [Gemcitabine] (first compound max 1 µM, 7x7, partner max 0.3 µM) | -0.0285 | – | – | – | – | – | – | – | – | – | – | –
COc1nnc2ccc(N3CCC(c4ccc(OCCN5CCN(C)C(=O)[C@H]5C)cc4)CC3)nn12 [AZD5153] + CN(CC[C@H](CSC1=CC=CC=C1)NC2=C(C=C(C=C2)S(=O)(=O)NC(=O)C3=CC=C(C=C3)N4CCC(CC4)[C@H](C5=CC=CC=C5C6=CC=C(C=C6)Cl)O)S(=O)(=O)C(F)(F)F)CCO [AZD4320] (first compound max 1 µM, 7x7, partner max 1 µM) | – | 0.688 | 0.0125 | 0.0663 | -0.044 | -0.0432 | 0.0512 | 0.0728 | 0.015 | – | – | –
Cc1cc2ncnn2cc1Nc1ncc2c(n1)n(C1CCOCC1)c(=O)n2C [AZD7648] + C=CCn1c(=O)c2cnc(Nc3ccc(N4CCN(C)CC4)cc3)nc2n1-c1cccc(C(C)(C)O)n1 [AZD1775] (first compound max 10 µM, partner max 1 µM) | 0.0217 | – | -0.0827 | 0.0097 | -0.0763 | 0.0144 | – | 0.0321 | 0.0602 | 0.601 | -0.0899 | -0.079
Cc1cc2ncnn2cc1Nc1ncc2c(n1)n(C1CCOCC1)c(=O)n2C [AZD7648] + CCN(CCO)CCCOc1ccc2c(Nc3cc(CC(=O)Nc4cccc(F)c4)[nH]n3)ncnc2c1 [AZD2811] (first compound max 10 µM, 7x7, partner max 1 µM) | -0.066 | – | -0.0291 | 0.0076 | -0.0172 | 0.0783 | – | 0.0033 | 0.0307 | 0.756 | 0.0621 | -0.0172
